Data reported in ChEMBL document CHEMBL1201862, “PubChem BioAssay data set” (2004).
Activity calls are given as the source filed them.

Key:
[1] = non-specific 3'UTR reporter inhibition in Clone20-Shn3RL – cell-based, Renilla luciferase, cherry-picked, counter-screen for Shn3 inhibitor project, dose response (AID 624133); type: functional
[2] = target: Matrix metalloproteinase-14 (Homo sapiens, UniProt P50281); assay: Dose Response confirmation of uHTS hits for a small molecule inhibitors of MT1-MMP activation in a fluorescence assay set 2.; type: functional
[3] = Luminescence Cell-Based Dose Confirmation HTS to Identify Activators of 5'UTR Stem-Loop Driven Alpha-Synuclein mRNA Translation in H4 Neuroglioblastoma Cells. [Related pubchem assays: 1829 (Project Summary), 1814 (Primary HTS)]; type: functional
[4] = Luminescence Cell-Based Dose Response HTS to Identify Activators of Luciferase Translation or Activity in H4 […] Cells. [Related pubchem assays: 1829 (Project Summary), 1814 (Primary HTS)]; type: functional
H4 = assay: Luminescence Cell-Based Dose Response HTS to Identify Activators of 5'UTR Stem-Loop Driven Prion Protein mRNA Translation in H4 Neuroglioblastoma Cells. [Related pubchem assays: 1829 (Project Summary), 1814 (Primary HTS)]; type: functional; conditions: Homo sapiens
[5] = loss of viability in HepG2 cells – cell-based, CellTiter-Glo, cherry-picked, cytotoxicity control for Shn3 inhibitor project, dose response (AID 624134); type: functional
[6] = reduction of Shn3 3'UTR-driven luciferase in osteoblasts – cell-based, Clone20 osteoblasts, firefly luciferase, cherry-picked, dose response (AID 624132); type: functional;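 also: firefly luciferase luminescence from reporter carrying the Shn3 3'UTR in osteoblasts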
[7] = A Cell-Based Confirmatory Screen for Compounds that Inhibit VEEV, TC-83 (8).; type: functional
[8] = inhibition of ADAM10 peptide cleavage – biochemical, FRET peptide substrate, recombinant human ADAM10, selectivity assay for ADAM17 exosite inhibitor project, dose response (AID 743259);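 also: ADAM10 enzyme cleaving a FRET peptide substrate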
[9] = target: T1, Calpain-2 catalytic subunit (Sus scrofa, UniProt P43367); assay: m-calpain protease blockers, concentration series – biochemical, fluorogenic peptide substrate, dose response (AID 1420); type: functional
T1 sequence (P43367 whole entry): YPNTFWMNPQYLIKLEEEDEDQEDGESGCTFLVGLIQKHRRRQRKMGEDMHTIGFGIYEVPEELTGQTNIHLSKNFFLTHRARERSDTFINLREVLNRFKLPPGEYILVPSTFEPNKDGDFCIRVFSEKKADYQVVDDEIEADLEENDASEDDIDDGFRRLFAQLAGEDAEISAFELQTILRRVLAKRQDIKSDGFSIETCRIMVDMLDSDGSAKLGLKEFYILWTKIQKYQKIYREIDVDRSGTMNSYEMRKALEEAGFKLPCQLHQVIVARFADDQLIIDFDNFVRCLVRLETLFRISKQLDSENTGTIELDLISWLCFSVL

[10] = target: T2, Disintegrin and metalloproteinase domain-containing protein 17 (Homo sapiens, UniProt P78536); assay: exosite inhibitors of ADAM17, dose response, biochemical (AID 743260)
T2 sequence (P78536 whole entry, the tested form may be a part): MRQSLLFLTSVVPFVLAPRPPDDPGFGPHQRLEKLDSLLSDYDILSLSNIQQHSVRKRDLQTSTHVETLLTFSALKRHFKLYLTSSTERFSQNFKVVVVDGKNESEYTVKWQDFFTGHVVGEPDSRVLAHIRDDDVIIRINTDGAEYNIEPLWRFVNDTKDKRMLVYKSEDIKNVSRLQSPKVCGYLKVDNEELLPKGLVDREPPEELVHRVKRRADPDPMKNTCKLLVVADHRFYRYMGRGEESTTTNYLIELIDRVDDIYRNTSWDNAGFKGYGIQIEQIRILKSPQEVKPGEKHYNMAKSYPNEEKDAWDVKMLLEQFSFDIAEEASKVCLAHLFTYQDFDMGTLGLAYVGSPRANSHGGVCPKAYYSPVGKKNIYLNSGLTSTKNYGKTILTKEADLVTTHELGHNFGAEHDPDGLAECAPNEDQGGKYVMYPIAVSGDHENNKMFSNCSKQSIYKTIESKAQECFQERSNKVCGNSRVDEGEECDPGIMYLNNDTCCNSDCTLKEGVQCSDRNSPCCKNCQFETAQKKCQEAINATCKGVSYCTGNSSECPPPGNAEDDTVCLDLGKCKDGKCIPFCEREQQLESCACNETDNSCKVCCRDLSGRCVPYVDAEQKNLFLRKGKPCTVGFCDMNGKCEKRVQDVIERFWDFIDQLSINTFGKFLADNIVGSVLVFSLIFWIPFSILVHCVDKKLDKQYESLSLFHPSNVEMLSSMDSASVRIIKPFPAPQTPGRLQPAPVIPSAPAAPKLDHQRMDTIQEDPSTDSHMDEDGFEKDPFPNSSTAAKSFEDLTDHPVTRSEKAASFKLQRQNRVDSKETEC

[11] = target: T3, Small ubiquitin-related modifier 2 (Homo sapiens, UniProt P61956); assay: SUMO2 binding disruption by SUMO1 hits – biochemical, FRET, human SUMO2, uHTS hits, selectivity assay for SUMO1 interaction inhibitor project, dose response (AID 624384); type: functional; conditions: read-out: IC50_Mean
T3 sequence (P61956 whole entry): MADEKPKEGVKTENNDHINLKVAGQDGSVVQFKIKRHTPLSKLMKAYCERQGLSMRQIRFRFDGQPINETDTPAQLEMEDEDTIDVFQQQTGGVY

[12] = target: T4, Small ubiquitin-related modifier 1 (Homo sapiens, UniProt P63165); assay: SUMO1 protein-protein binding blockers, potency – biochemical, FRET, dose response (AID 624383); type: functional; conditions: read-out: IC50_Mean
T4 sequence (P63165 whole entry): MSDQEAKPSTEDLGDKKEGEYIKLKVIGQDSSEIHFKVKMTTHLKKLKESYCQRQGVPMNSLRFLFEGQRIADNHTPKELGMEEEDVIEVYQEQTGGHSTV

[13] = target: T4, Small ubiquitin-related modifier 1; assay: SUMO1 protein interaction blockers, potency – biochemical, fluorescence polarization, uHTS hits, dose response (AID 624382); type: functional; conditions: read-out: IC50_Mean
[14] = target: T3, Small ubiquitin-related modifier 2; assay: disruption of SUMO2 interaction with SIM peptide – biochemical, fluorescence polarization, uHTS hits, selectivity assay for SUMO1 interaction inhibitor project, dose response (AID 624385); type: functional; conditions: read-out: IC50_Mean
H9c2 = assay: cells; type: functional, cell-based; conditions: Rattus norvegicus, H9c2, Myocardium;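 also: confirmatory concentration-response retest of ultra-high-throughput screening hits for modulation of myocardial damage; cell death induced by hydrogen peroxide oxidative stress; compound pretreatment for 60 min then peroxide exposure for 2 h; potency is for protecting the cells against peroxide damage rather than for killing them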
[15] = target: Arf-GAP with SH3 domain, ANK repeat and PH domain-containing protein 1 (Homo sapiens, UniProt Q9ULH1); type: functional;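 also: biochemical fluorescence polarization dose–response screen measuring inhibition of ASAP1; ASAP1 GAP domain stimulating GTP hydrolysis by truncated human ARF1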
Sequence of Arf-GAP with SH3 domain, ANK repeat and PH domain-containing protein 1 (Q9ULH1 whole entry, the tested form may be a part): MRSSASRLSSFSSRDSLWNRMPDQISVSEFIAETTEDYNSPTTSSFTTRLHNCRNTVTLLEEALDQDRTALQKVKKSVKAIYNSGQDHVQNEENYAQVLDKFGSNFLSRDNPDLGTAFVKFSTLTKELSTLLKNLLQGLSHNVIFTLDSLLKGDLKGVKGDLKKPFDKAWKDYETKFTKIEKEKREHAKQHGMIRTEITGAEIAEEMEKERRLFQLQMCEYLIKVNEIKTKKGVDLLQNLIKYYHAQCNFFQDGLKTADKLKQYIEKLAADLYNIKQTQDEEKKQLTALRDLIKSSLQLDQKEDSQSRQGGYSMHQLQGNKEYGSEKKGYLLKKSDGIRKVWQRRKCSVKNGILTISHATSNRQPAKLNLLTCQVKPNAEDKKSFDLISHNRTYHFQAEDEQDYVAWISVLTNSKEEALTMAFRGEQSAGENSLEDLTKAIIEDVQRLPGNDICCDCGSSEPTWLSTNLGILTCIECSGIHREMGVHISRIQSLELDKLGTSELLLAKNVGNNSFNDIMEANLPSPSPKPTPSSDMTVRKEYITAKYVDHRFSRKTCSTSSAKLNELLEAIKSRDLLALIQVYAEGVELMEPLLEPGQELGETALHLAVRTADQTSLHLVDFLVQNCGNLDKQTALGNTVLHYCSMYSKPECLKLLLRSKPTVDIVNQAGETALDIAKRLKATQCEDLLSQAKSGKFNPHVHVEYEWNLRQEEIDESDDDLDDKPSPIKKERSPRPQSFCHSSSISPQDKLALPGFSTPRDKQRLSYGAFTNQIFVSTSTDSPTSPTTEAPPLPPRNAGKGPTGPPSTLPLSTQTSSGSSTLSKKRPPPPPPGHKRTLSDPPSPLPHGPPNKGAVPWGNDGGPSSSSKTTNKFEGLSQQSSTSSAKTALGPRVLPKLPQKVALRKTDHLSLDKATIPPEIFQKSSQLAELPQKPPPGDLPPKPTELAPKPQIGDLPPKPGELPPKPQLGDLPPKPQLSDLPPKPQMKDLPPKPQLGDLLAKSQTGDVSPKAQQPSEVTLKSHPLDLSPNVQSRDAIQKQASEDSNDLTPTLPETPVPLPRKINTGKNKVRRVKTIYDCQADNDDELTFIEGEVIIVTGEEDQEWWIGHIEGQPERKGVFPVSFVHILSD

[16] = target: ADP-ribosylation factor GTPase-activating protein 1 (Rattus norvegicus, UniProt Q62848); assay: Fluorescence polarization-based biochemical high throughput dose response screening assay to identify inhibitors of ADP-ribosylation factor GTPase activating protein 1 (ARFGAP1).; type: functional
[17] = target: Metabotropic glutamate receptor 5 (Rattus norvegicus, UniProt P31424); assay: Identification of a glycine sulfonamide based non-MPEP site positive allosteric potentiator (PAM) of mGlu5 (calcium_assay).; type: functional
Sequence of Metabotropic glutamate receptor 5 (P31424 whole entry, the tested form may be a part): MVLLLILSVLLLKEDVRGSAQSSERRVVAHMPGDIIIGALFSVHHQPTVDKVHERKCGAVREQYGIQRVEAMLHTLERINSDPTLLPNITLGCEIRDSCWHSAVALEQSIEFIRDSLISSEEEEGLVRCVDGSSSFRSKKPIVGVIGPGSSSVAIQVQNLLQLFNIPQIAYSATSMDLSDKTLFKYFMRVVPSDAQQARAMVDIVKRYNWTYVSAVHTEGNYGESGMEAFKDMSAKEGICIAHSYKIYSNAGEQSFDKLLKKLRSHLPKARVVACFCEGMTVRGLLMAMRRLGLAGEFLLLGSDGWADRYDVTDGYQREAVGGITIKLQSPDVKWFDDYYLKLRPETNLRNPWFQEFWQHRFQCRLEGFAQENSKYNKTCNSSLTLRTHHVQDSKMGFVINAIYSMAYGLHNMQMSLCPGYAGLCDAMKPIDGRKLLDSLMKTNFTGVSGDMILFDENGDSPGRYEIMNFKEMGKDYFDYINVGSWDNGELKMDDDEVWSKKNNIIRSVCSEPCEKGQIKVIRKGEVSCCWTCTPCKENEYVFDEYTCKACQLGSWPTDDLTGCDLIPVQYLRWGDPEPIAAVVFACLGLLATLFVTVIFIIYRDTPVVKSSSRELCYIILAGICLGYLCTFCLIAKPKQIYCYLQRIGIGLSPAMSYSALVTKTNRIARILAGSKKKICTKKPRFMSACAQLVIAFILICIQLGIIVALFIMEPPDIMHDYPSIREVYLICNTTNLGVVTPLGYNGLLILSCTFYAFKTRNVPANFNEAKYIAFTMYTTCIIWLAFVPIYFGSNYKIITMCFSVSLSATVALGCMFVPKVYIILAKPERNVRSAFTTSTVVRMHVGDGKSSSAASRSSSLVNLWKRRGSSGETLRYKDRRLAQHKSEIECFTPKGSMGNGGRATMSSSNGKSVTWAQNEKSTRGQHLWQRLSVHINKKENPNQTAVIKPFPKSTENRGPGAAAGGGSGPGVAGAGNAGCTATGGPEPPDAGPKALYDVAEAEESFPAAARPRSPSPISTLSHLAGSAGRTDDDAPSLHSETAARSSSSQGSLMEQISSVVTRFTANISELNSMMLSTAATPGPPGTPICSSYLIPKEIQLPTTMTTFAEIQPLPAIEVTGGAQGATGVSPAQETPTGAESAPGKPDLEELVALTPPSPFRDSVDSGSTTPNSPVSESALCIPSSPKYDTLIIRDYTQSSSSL

[18] = target: T2, Disintegrin and metalloproteinase domain-containing protein 17; assay: inhibition of ADAM17 substrate cleavage – biochemical, quenched FRET substrate, counter-screen for ADAM10 exosite inhibitor project, dose response (AID 743253)
[19] = potency of ADAM10 substrate cleavage blockers – biochemical, QFRET, dose response (AID 743254);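 also: ADAM10 enzyme with the DM2 quenched FRET peptide as substrate; EDANS fluorescence gain as the protease cuts the substrate; inhibitor potency against ADAM10 proteolytic activity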
[20] = kidney cell line viability loss – HEK293T, luminescence plate reader, powder samples, set 4, cytotoxicity control, dose response (AID 651863); type: functional, cell-based; conditions: HEK293
Mu-type opioid receptor = Mu-type opioid receptor (Homo sapiens, UniProt P35372); assay: Late-stage results from the probe development effort to identify antagonists of OPRK1: luminescence-based cell-based dose response OPRM1 counterscreen.; type: functional
Sequence of Mu-type opioid receptor (P35372 whole entry): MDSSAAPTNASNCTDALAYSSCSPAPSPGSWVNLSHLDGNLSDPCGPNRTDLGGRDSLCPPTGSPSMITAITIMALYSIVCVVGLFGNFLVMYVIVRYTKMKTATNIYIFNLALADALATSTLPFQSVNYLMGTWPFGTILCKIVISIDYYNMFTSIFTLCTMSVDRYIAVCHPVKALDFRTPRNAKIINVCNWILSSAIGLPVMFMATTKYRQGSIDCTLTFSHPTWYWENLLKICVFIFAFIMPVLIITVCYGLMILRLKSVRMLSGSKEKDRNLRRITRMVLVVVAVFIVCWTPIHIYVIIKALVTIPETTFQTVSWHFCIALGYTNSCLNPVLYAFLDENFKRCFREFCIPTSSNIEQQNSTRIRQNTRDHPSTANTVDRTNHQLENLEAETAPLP

[21] = target: Delta-type opioid receptor (Homo sapiens, UniProt P41143); assay: Late-stage results from the probe development effort to identify antagonists of OPRK1: fluorescence-based cell-based dose response OPRD1 counterscreen.; type: functional
Sequence of Delta-type opioid receptor (P41143 whole entry): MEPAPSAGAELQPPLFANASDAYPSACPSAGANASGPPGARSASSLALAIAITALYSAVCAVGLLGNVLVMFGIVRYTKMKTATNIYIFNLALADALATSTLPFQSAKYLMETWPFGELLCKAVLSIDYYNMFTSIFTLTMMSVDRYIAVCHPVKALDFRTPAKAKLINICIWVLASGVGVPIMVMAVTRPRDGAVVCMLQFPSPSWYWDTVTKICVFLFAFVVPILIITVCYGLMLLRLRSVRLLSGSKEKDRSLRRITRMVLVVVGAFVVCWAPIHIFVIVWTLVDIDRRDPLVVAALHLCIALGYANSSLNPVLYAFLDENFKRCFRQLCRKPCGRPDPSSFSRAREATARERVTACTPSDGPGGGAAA

[22] = viability loss in HEK293T cells – cell-based, cherry-picks, cytotoxicity control for HIV Vif inhibitor project, dose response (AID 652208); type: functional
[23] = viability loss in HepG2 hepatoma cells – cell-based, cherry-picks, set 5, cytotoxicity control, dose response (AID 1053118); type: functional
[24] = viability loss in HEK293 kidney cells – cell-based, cherry-picks, set 5, cytotoxicity control, dose response (AID 1053117); type: functional
[25] = blockers of FN fibrillogenesis by fibroblasts – AH1F cells, Alexa488-FN fluorescence, cherry-picks, dose response (AID 1035475); type: functional, cell-based
[26] = activation of miR-122 Renilla sensor silencing – cell-based, Huh7 psiCHECK-miR122, Renilla luciferase, cherry-picked, dose response (AID 651956); type: functional;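 also: huh7 hepatoma cells stably carrying a psiCHECK-2 miR-122 sensor plasmid; renilla luciferase signal reporting endogenous miR-122 activity after 48 h compound exposure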
[27] = general mammalian cell viability loss – activator set, cherry-pick, cytotoxicity control for miR-122 modulator project, dose response (AID 720690); type: functional, cell-based;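 also: HEK293T human cells scored for general mammalian cytotoxicity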
[28] = general mammalian cell viability loss – inhibitor set, cherry-pick, set 2, cytotoxicity control for miR-122 modulator project, dose response (AID 720697); type: functional, cell-based
[29] = target: Long-chain-fatty-acid--AMP ligase FadD28 (Mycobacterium tuberculosis, UniProt P9WQ59); assay: Fluorescence polarization aasay to screen for inhibitors that compete for the binding of FadD28 to a bisubstrate Measured in Biochemical System Using Plate Reader - 2147-01_Inhibitor_Dose_CherryPick_Activity.; type: functional, Mycobacterium tuberculosis H37Rv
Beta-lactamase [30] = target: T5, Beta-lactamase (Pseudomonas aeruginosa, UniProt Q79MP6); assay: […] counterscreen for selective VIM-2 inhibitors: dose response biochemical high throughput screening assay to identify inhibitors of IMP-1 metallo-beta-lactamase.
T5 sequence (Q79MP6 whole entry): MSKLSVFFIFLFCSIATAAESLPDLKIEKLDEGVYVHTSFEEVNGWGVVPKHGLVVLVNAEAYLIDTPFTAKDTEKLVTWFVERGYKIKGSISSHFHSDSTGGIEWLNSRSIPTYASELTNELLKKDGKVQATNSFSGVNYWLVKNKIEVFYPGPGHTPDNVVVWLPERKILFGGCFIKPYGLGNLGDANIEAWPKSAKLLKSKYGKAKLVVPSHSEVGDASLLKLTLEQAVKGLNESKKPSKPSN

Beta-lactamase [31] = target: T5, Beta-lactamase; assay: inhibition of IMP-1 beta-lactamase activity – biochemical, epi-absorbance, selectivity assay for VIM-2 inhibitor project, dose response (AID 1920)
Beta-lactamase [32] = target: Beta-lactamase (Salmonella choleraesuis (strain SC-B67), UniProt Q5J463); assay: Epi-absorbance-based counterscreen for selective VIM-2 inhibitors: dose response biochemical high throughput screening assay to identify inhibitors of TEM-1 serine-beta-lactamase.
Sequence of Beta-lactamase (Salmonella choleraesuis (strain SC-B67), UniProt Q5J463) (Q5J463 whole entry): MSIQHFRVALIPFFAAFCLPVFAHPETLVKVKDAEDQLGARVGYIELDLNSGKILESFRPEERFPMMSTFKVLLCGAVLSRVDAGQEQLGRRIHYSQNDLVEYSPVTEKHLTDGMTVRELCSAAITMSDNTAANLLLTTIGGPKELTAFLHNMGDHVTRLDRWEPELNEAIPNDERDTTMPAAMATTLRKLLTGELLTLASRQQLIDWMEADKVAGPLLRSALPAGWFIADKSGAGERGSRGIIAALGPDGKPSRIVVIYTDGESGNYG

[33] = Late stage assay provider results from the probe development effort to identify selective inhibitors of heat shock protein 90 (HSP90): Absorbance-based cell proliferation assay in SKBR3 cells.; type: functional; conditions: SK-BR-3
[34] = Late stage assay provider results from the probe development effort to identify selective inhibitors of heat shock protein 90 (HSP90): Absorbance-based cell proliferation assay in MCF7 cells.; type: functional
CHO = CHO cell viability loss, potency – luminescence, cytotoxicity control for TLR9-MyD88 binding inhibitor project, dose response (AID 588339); type: functional, cell-based, hamster; conditions: Cricetulus griseus;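 also: CHO cells stably coexpressing TLR9 and MyD88 fusions from primary screen; compound exposure lasted 48 hours before viability readout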
[35] = Late stage assay provider counterscreen for TLR9 inhibitors: absorbance-based cell-based MTT cytotoxicity assay.; type: functional
[36] = viability loss in HeLa cells – cytotoxicity control for MgcRacGAP inhibitor project, dose response (AID 624300); type: functional
[37] = target: T6, Rac GTPase-activating protein 1 (Homo sapiens, UniProt Q9H0H5); assay: blockers of MgcRacGAP-driven Rac1 GTP hydrolysis – biochemical, ADP Hunter fluorescence, primary and confirmatory, confirmation (AID 624330); type: functional
T6 sequence (Q9H0H5 whole entry): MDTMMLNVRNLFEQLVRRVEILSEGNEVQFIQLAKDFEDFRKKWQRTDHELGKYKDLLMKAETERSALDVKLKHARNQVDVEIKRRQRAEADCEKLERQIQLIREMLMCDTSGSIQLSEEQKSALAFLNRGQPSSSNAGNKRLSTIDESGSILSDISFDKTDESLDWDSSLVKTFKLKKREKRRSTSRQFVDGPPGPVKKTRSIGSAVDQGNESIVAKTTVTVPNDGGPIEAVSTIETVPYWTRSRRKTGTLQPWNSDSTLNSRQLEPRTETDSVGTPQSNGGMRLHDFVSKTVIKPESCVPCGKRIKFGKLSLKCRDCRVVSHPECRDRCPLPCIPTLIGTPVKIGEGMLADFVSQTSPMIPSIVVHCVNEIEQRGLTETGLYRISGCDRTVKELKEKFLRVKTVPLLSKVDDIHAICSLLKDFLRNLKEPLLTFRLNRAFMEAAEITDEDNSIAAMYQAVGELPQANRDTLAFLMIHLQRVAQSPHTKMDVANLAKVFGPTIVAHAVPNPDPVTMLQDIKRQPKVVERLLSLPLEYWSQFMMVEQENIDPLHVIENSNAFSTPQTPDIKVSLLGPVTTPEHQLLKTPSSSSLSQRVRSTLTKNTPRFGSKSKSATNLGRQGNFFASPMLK

Beta Lactamase = Beta Lactamase (Pseudomonas aeruginosa, UniProt Q932Y6); assay: BLA reporter interference, concentration series – BLA reporter cells, FRET fluorescence, artefact control for TLR9-MyD88 binding inhibitor project, dose response (AID 588341); type: cell-based;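 also: cell based assay in CHO-K1 cells stably expressing beta-lactamase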
Sequence of Beta Lactamase (Q932Y6 whole entry): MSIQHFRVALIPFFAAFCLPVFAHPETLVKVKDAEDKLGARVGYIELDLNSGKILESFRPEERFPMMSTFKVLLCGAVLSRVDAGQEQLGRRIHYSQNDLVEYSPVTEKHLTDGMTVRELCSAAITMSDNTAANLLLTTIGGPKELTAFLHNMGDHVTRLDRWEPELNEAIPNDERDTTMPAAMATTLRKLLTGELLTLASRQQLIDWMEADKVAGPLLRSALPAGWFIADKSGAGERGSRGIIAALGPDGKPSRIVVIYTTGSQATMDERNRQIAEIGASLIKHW

[38] = reduced cellular PGC1a acetyl-lysine signal – cell-based, cherry-picked samples, dose response (AID 720514); type: functional;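 also: potency may reflect raised or lowered acetylation signal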
fMet-Leu-Phe receptor = fMet-Leu-Phe receptor (Homo sapiens, UniProt P21462); assay: formyl peptide receptor binders – dose response (AID 519); type: functional

CC[n+]1c(/C=C/Nc2ccccc2)sc2ccccc21
AC50 [1]: 5.83 µM (active)
IC50 [2]: 23.3 µM (inactive)
EC50 [3]: > 120 µM (not active)
EC50 [4]: > 120 µM (not active)
EC50 (H4): > 120 µM (not active)
AC50 [5]: > 70 µM (inactive)
AC50 [6]: 2.06 µM (active)

CNCCN(C)Cc1nc2ccc(C#N)cc2c(=O)n1-c1ccccc1F
IC50 [7]: 3.69 µM (active)

Nc1cc(S(=O)(=O)N2CCCCC2)ccc1Oc1ccc(Cl)cc1
IC50 [8]: > 69.5 µM (inactive)
IC50 [9]: 5.69 µM (not active)
IC50 [10]: > 69.5 µM (inactive)

Nc1cc2nc(O)c3ccccc3c2cc1[N+](=O)[O-]
IC50 [11]: > 66 µM (inactive)
IC50 [12]: 51.8 µM (inactive)
IC50 [13]: 1.02 µM (active)
IC50 [14]: 45.7 µM (inactive)
IC50 (H9c2): > 79 µM (inactive)

CC(=O)c1cccc(NC(=O)c2cccc3c(-c4cccnc4)coc23)c1
IC50 [15]: 79.4 µM (inactive)
IC50 [16]: 129 µM (inactive)

CS(=O)(=O)N(CC(=O)Nc1ccc(F)cc1F)c1cc(C(F)(F)F)ccc1Cl
EC50 [17]: 2.41 µM

Cc1cccc([C@@H]2[C@@H]3C(=O)N(Cc4ccccc4)C(=O)[C@@H]3[C@]3(Cc4ccccc4)C(=O)N(c4ccc(C(F)(F)F)cc4)C(=O)N23)c1
IC50 [18]: > 69.6 µM (inactive)
IC50 [19]: > 69.6 µM (inactive)

O=C(NC[C@@H]1c2ccccc2CCN1C(=O)[C@@H]1CCCC[C@@H]1C(=O)O)OCC1c2ccccc2-c2ccccc21
AC50 [20]: 46.3 µM (active)

CC(C)OC(=O)c1cc(Br)cnc1N1CCC(NC2CCCCC2)CC1
IC50 (Mu-type opioid receptor): 20 µM (inactive)
IC50 [21]: 3 µM (active)

CC(=O)Nc1ccc(NC(=O)COc2ccccc2C(=O)Nc2cccc(Cl)c2Cl)cc1
AC50 [22]: 8.25 µM (active)

O=S(=O)(c1cccc(F)c1)N1CC[C@@H]2[C@@H](CO)Nc3ccc(-c4cccc(F)c4)cc3[C@@H]21
AC50 [23]: 27.3 µM (active)
AC50 [24]: 22.6 µM (active)
AC50 [25]: 6.54 µM (active)

COc1ccc(OC)c(-c2cc(C3CCN(c4cc(Cl)nc(N)n4)CC3)[nH]n2)c1
AC50 [26]: 42.9 µM (active)
AC50 [27]: 16.7 µM (active)
AC50 [28]: 18.1 µM (active)

CCn1ncc(Br)c1C(=O)Nc1ccc(OC(F)(F)F)cc1
AC50 [29]: 52 µM (active)

Cc1ccccc1C(=O)Nc1nnc(SCC(=O)NCc2ccco2)s1
IC50 (Beta-lactamase [30]): > 59.6 µM (inactive)
IC50 (Beta-lactamase [31]): > 59.6 µM (inactive)
IC50 (Beta-lactamase [32]): > 59.6 µM (inactive)

COc1c[nH]c(C(=O)Nc2cccc(C(C)=O)c2)cc1=O
IC50 [33]: > 100 µM (inactive)
IC50 [34]: > 100 µM (inactive)

O=C1C=CC2(C=C1)O[C@H](Cc1ccccc1)[C@@H](Cc1ccccc1)O2
IC50 (CHO): 0.57 µM (active)
CC50 [35]: 0.88 µM (active)
CC50 [36]: 46.5 µM (active)
IC50 [37]: 49.6 µM (active)
IC50 (Beta Lactamase): 21.8 µM (inactive)
AC50 [38]: 1.05 µM (active)

COc1ccc2c(=O)c(-c3cnn(-c4ccccc4)c3)c(C)oc2c1
Ki (fMet-Leu-Phe receptor): > 66.7 µM (inactive)
